The target in the assay is T1, Activated human p38α (Homo sapiens, UniProt Q16539).
T1 construct: purchased Upstate Biotechnology Inc. 14-251
T1 sequence (Q16539 whole entry): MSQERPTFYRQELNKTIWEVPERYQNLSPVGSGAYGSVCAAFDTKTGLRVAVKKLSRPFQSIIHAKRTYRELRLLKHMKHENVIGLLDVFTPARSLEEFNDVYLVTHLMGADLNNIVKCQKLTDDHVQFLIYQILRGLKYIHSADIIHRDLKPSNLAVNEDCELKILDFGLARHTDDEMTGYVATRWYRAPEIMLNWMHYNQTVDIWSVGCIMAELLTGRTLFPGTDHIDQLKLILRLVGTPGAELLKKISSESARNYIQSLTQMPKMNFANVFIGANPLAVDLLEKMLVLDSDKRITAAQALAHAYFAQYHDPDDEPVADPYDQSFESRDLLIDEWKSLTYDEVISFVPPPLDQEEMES
The experiment in a line: p38MAP kinase inhibition test. Type of assay: biochemical. The note with it: at a concentration of 1 μmol/L; substrate myelin basic protein, ATP 20 μmol/L, [γ-32P]ATP; read-out: enzyme inhibitory activity. An outline of the steps:
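Radiometric kinase assay with myelin basic protein (20 μg/assay) as substrate, 20 μmol/L ATP plus [γ-32P]ATP, MOPS pH 7.2 with MgCl2 18.75 mmol/L. Reaction run 15 min at 30° C., stopped with phosphoric acid; 32P-MBP captured on phosphocellulose and counted by scintillation.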
`COc1cc2nc(NC(C)C)ncc2cc1-c1cc(NC(=O)c2ccc[nH]2)ccc1O` [Compound 252, 6-{2-Hydroxy-5-[(1H-pyrrol-2-yl)carbonylamino]phenyl}-2-isopropylamino-7-methoxyquinazoline]: the inhibition at 1 µM is at least 50%.

In the case of `Cc1ccc(NC(=O)c2ccc[nH]2)cc1-c1ccc2nc(NC(C)C)ncc2c1` [Compound 253, 2-Isopropylamino-6-{2-methyl-5-[(1H-pyrrol-2-yl)carbonylamino]phenyl}quinazoline], the inhibition at 1 µM is at least 50%.

Take `CC(=O)Nc1ccc(C)c(-c2ccc3nc(NC(C)C)ncc3c2)c1` [Compound 254, 6-(5-Acetylamino-2-methylphenyl)-2-(isopropylamino)quinazoline]: the inhibition at 1 µM is at least 50%.

Turning to `CC(C)Nc1ncc2cc(-c3cc(NC(=O)c4ccc[nH]4)ccc3CO)ccc2n1` [Compound 255, 6-{2-Hydroxymethyl-5-[(1H-pyrrol-2-yl)carbonylamino]phenyl}-2-(isopropylamino)quinazoline], the inhibition at 1 µM was at least 50%.

In the case of `Cc1ccc(NC(=O)c2ccnc(N3CCOCC3)c2)cc1-c1ccc2nc(NC(C)C)ncc2c1` [Compound 256, 2-Isopropylamino-6-{2-methyl-5-[(2-morpholinopyridin-4-yl)carbonylamino]phenyl}quinazoline], the inhibition at 1 µM is at least 50%.

For `CC(C)Nc1ncc2cc(-c3cccc(NC(=O)c4ccnc(N5CCOCC5)c4)c3)ccc2n1` [Compound 257, 2-Isopropylamino-6-{3-[(2-morpholinopyridin-4-yl)carbonylamino]phenyl}quinazoline], the inhibition at 1 µM is at least 50%.

Regarding `CC(C)Nc1ncc2cc(-c3cccc(NC(=O)c4ccc[nH]4)c3)ccc2n1` [Compound 258, 2-Isopropylamino-6-{3-[(1H-pyrrol-2-yl)carbonylamino]phenyl}quinazoline], the inhibition at 1 µM is at least 50%.

For `Cc1ccc(NC(=O)c2ccncc2)cc1-c1ccc2nc(NC(C)C)ncc2c1` [Compound 259, 2-Isopropylamino-6-{2-methyl-5-[(4-pyridyl)carbonylamino]phenyl}quinazoline], the inhibition at 1 µM is at least 50%.

Consider `Cc1ccc(NC(=O)c2cnccn2)cc1-c1ccc2nc(NC(C)C)ncc2c1` [Compound 261, 2-Isopropylamino-6-[2-methyl-5-(pyrazinylcarbonylamino)phenyl]quinazoline], for which the inhibition at 1 µM is at least 50%.

`Cc1ccc(NC(=O)c2ccccn2)cc1-c1ccc2nc(NC(C)C)ncc2c1` [Compound 262, 2-Isopropylamino-6-{2-methyl-5-(2-pyridylcarbonylamino)phenyl}quinazoline]: the inhibition at 1 µM is at least 50%.

As to `Cc1ccc(NC(=O)c2ccc[n+]([O-])c2)cc1-c1ccc2nc(NC(C)C)ncc2c1` [Compound 263, 2-Isopropylamino-6-{2-methyl-5-[(pyridine-1-oxide-3-yl)carbonylamino]phenyl}quinazoline], the inhibition at 1 µM is at least 50%.

Turning to `Cc1ccc(NC(=O)C2CC2)cc1-c1ccc2nc(NC(C)C)ncc2c1` [Compound 264, 6-(5-Cyclopropylcarbonylamino-2-methylphenyl)-2-(isopropylamino)quinazoline], the inhibition at 1 µM is at least 50%.

With `Cc1ccc(NC(=O)C2CCC2)cc1-c1ccc2nc(NC(C)C)ncc2c1` [Compound 265, 6-(5-Cyclobutylcarbonylamino-2-methylphenyl)-2-(isopropylamino)quinazoline], the inhibition at 1 µM is at least 50%.

Consider `CC(C)Nc1ncc2cc(-c3cc(NC(=O)c4ccnc(N5CCOCC5)c4)ccc3O)ccc2n1` [Compound 266, 6-{2-Hydroxy-5-[(2-morpholinopyridin-4-yl)carbonylamino]phenyl]-2-(isopropylamino)quinazoline], for which the inhibition at 1 µM was at least 50%.

As to `CC(C)Nc1ncc2cc(-c3cc(NC(=O)c4ccc[nH]4)ccc3O)ccc2n1` [Compound 267, 6-{2-Hydroxy-5-[(1H-pyrrol-2-yl)carbonylamino]phenyl}-2-(isopropylamino)quinazoline], the inhibition at 1 µM is at least 50%.

As to `Cc1ccc(C(=O)NC2CC2)cc1-c1ccc2nc(NC(C)C)ncc2c1` [Compound 268, 6-(5-Cyclopropylcarbamoyl-2-methylphenyl)-2-(isopropylamino)quinazoline], the inhibition at 1 µM was at least 50%.

For `CC(C)Nc1ncc2cc(-c3cccc(C(=O)NC4CC4)c3)ccc2n1` [Compound 270, 6-[3-(Cyclopropylcarbamoyl)phenyl]-2-(isopropylamino)quinazoline], the inhibition at 1 µM is at least 50%.

As to `CC[C@H](C)Nc1ncc2cc(-c3cc(NC(C)=O)ccc3CO)ccc2n1` [Compound 272, (S)-6-[5-acetylamino-2-(hydroxymethyl)phenyl]-2-(sec-butylamino)quinazoline], the inhibition at 1 µM is at least 50%.

With `CC[C@H](C)Nc1ncc2cc(-c3cc(NC(=O)c4ccc[nH]4)ccc3CO)ccc2n1` [Compound 273, (S)-2-(sec-Butylamino)-6-{2-hydroxymethyl-5-[(1H-pyrrol-2-yl)carbonylamino]phenyl}quinazoline], the inhibition at 1 µM is at least 50%.

With `CC(=O)Nc1cccc(-c2ccc3nc(NC4CCN(S(C)(=O)=O)CC4)ncc3c2)c1` [Compound 274, 6-[3-(Acetylamino)phenyl]-2-[1-(methylsulfonyl)piperidin-4-ylamino]quinazoline], the inhibition at 1 µM is at least 50%.

Consider `Cc1ccccc1-c1ccc2nc(NC3CCN(S(C)(=O)=O)CC3)ncc2c1` [Compound 275, 6-(2-Methylphenyl)-2-[1-(methylsulfonyl)piperidin-4-ylamino]quinazoline], for which the inhibition at 1 µM is at least 50%.

In the case of `CS(=O)(=O)N1CCC(Nc2ncc3cc(-c4cccc(O)c4)ccc3n2)CC1` [Compound 276, 6-(3-Hydroxyphenyl)-2-[1-(methylsulfonyl)piperidin-4-ylamino]quinazoline], the inhibition at 1 µM was at least 50%.

In the case of `CC(=O)Nc1cccc(-c2cc3cnc(NC(C)C)nc3cc2C)c1` [Compound 277, 6-[3-(Acetylamino)phenyl]-2-isopropylamino-7-methylquinazoline], the inhibition at 1 µM is at least 50%.

Regarding `Cc1cc2nc(NC(C)C)ncc2cc1-c1cccc(NC(=O)c2ccc[nH]2)c1` [Compound 278, 2-Isopropylamino-7-methyl-6-{3-[(1H-pyrrol-2-yl)carbonylamino]phenyl}quinazoline], the inhibition at 1 µM is at least 50%.

On to `Cc1cc2nc(NC(C)C)ncc2cc1-c1cccc(NC(=O)c2ccnc(N3CCOCC3)c2)c1` [Compound 279, 2-Isopropylamino-7-methyl-6-{3-[(2-morpholinopyridin-4-yl)carbonylamino]phenyl}quinazoline], for which the inhibition at 1 µM was at least 50%.

As to `CC(=O)Nc1ccc(CO)c(-c2cc3cnc(NC(C)C)nc3cc2C)c1` [Compound 280, 6-[(5-Acetylamino-2-hydroxymethyl)phenyl]-2-isopropylamino-7-methylquinazoline], the inhibition at 1 µM was at least 50%.

Consider `Cc1cc2nc(NC(C)C)ncc2cc1-c1cc(NC(=O)c2ccc[nH]2)ccc1CO` [Compound 281, 6-{2-Hydroxymethyl-5-[(1H-pyrrol-2-yl)carbonylamino]phenyl}-2-isopropylamino-7-methylquinazoline], for which the inhibition at 1 µM is at least 50%.

Take `CC(C)Nc1ncc2cc(-c3cccc([N+](=O)[O-])c3)c(OCc3ccccc3)cc2n1` [Compound 282, 7-Benzyloxy-2-isopropylamino-6-(3-nitrophenyl)quinazoline]: the inhibition at 1 µM was at least 50%.

Consider `CC(C)Nc1ncc2cc(-c3cccc(N)c3)c(O)cc2n1` [Compound 285, 6-(3-Aminophenyl)-7-hydroxy-2-(isopropylamino)quinazoline], for which the inhibition at 1 µM is at least 50%.

For the molecule `CC(=O)Nc1cccc(-c2cc3cnc(NC(C)C)nc3cc2O)c1` [Compound 287, 6-[3-(Acetylamino)phenyl]-7-hydroxy-2-(isopropylamino)quinazoline], the inhibition at 1 µM is at least 50%.

With `CC(=O)Nc1ccc(C)c(-c2cc3cnc(NC(C)C)nc3cc2O)c1` [Compound 289, 6-(5-Acetylamino-2-methylphenyl)-7-hydroxy-2-(isopropylamino)quinazoline], the inhibition at 1 µM was at least 50%.

For the molecule `CC(C)Nc1ncc2cc(-c3cccc(NC(=O)c4ccc[nH]4)c3)c(O)cc2n1` [Compound 292, 7-Hydroxy-2-isopropylamino-6-{3-[(1H-pyrrol-2-yl)carbonylamino]phenyl}quinazoline], the inhibition at 1 µM is at least 50%.

On to `Cc1ccc(NC(=O)C2CCC2)cc1-c1cc2cnc(NC(C)C)nc2cc1O` [Compound 293, 6-(5-Cyclobutylcarbonylamino-2-methylphenyl)-7-hydroxy-2-(isopropylamino)quinazoline], for which the inhibition at 1 µM is at least 50%.

Regarding `CC(C)Nc1ncc2cc(-c3cccc(NC(=O)C4CCC4)c3)c(O)cc2n1` [Compound 294, 6-[3-(Cyclobutylcarbonylamino)phenyl]-7-hydroxy-2-(isopropylamino)quinazoline], the inhibition at 1 µM is at least 50%.

On to `Cc1ccc(NC(=O)C2CC2)cc1-c1cc2cnc(NC(C)C)nc2cc1O` [Compound 295, 6-(5-Cyclopropylcarbonylamino-2-methylphenyl)-7-hydroxy-2-(isopropylamino)quinazoline], for which the inhibition at 1 µM is at least 50%.

Consider `CC(C)Nc1ncc2cc(-c3cccc(NC(=O)C4CC4)c3)c(O)cc2n1` [Compound 296, 6-[3-(Cyclopropylcarbonylamino)phenyl]-7-hydroxy-2-(isopropylamino)quinazoline], for which the inhibition at 1 µM is at least 50%.

With `CCC(=O)Nc1cccc(-c2cc3cnc(NC(C)C)nc3cc2O)c1` [Compound 297, 7-Hydroxy-2-isopropylamino-6-[3-(propionylamino)phenyl]quinazoline], the inhibition at 1 µM was at least 50%.

As to `CC(C)Nc1ncc2cc(-c3cccc(NC(=O)C(C)(C)C)c3)c(O)cc2n1` [Compound 298, 6-[3-(tert-Butylcarbonylamino)phenyl]-7-hydroxy-2-(isopropylamino)quinazoline], the inhibition at 1 µM is at least 50%.

The record behind these values is patent publication US7906522B2, “2-aminoquinazoline derivatives” (Kyowa Hakko Kirin Co., Ltd, priority 2005, dated 2011).
